± gives the expanded uncertainty stated by the source.
Assay: activity coefficient (dimensionless); of the first substance listed, at infinite dilution; xn = mol fraction of the nth substance listed
Conditions: 101.33 kPa, Liquid, Chromatography, x1 = 0

SMILES	activity coefficient (323.15 K)	activity coefficient (333.15 K)	activity coefficient (343.15 K)	activity coefficient (353.15 K)	activity coefficient (363.15 K)
CCO [ethanol] + CCC[n+]1ccn(C)c1.[Br-]	0.208 ± 0.033	0.197 ± 0.033	0.19 ± 0.032	0.184 ± 0.032	0.18 ± 0.032
CCOC(C)=O [ethyl acetate] + CCC[n+]1ccn(C)c1.[Br-]	3.68 ± 0.39	3.86 ± 0.41	4.07 ± 0.43	4.27 ± 0.45	4.46 ± 0.47
CCc1ccccc1 [ethylbenzene] + CCC[n+]1ccn(C)c1.[Br-]	5.48 ± 0.58	5.67 ± 0.6	5.84 ± 0.61	6.01 ± 0.63	6.19 ± 0.65
CCCCCCC [heptane] + CCC[n+]1ccn(C)c1.[Br-]	106 ± 11	102 ± 11	98.5 ± 10	95.4 ± 10	92.5 ± 9.7
CCCCCC [hexane] + CCC[n+]1ccn(C)c1.[Br-]	102 ± 11	98.9 ± 10	95.6 ± 10	92.5 ± 9.7	89.9 ± 9.5
CO [methanol] + CCC[n+]1ccn(C)c1.[Br-]	0.112 ± 0.03	0.108 ± 0.03	0.106 ± 0.03	0.103 ± 0.03	0.102 ± 0.03
CC1CCCCC1 [methylcyclohexane] + CCC[n+]1ccn(C)c1.[Br-]	82.3 ± 8.7	79.9 ± 8.4	77.5 ± 8.2	75.2 ± 7.9	73.2 ± 7.7
CCCCCCCCC [nonane] + CCC[n+]1ccn(C)c1.[Br-]	119 ± 13	115 ± 12	110 ± 12	106 ± 11	103 ± 11
CCCCCCCC [octane] + CCC[n+]1ccn(C)c1.[Br-]	111 ± 12	107 ± 11	104 ± 11	100 ± 11	97.7 ± 10
CCCCCO [pentan-1-ol] + CCC[n+]1ccn(C)c1.[Br-]	0.692 ± 0.072	0.651 ± 0.069	0.619 ± 0.066	0.592 ± 0.063	0.575 ± 0.062
CCCO [propan-1-ol] + CCC[n+]1ccn(C)c1.[Br-]	0.279 ± 0.038	0.268 ± 0.037	0.258 ± 0.036	0.25 ± 0.036	0.244 ± 0.035
CC(C)O [propan-2-ol] + CCC[n+]1ccn(C)c1.[Br-]	0.373 ± 0.044	0.359 ± 0.043	0.344 ± 0.042	0.334 ± 0.042	0.326 ± 0.041
C=Cc1ccccc1 [styrene] + CCC[n+]1ccn(C)c1.[Br-]	1.83 ± 0.19	1.92 ± 0.2	2 ± 0.21	2.08 ± 0.22	2.17 ± 0.23
ClC(Cl)(Cl)Cl [tetrachloromethane] + CCC[n+]1ccn(C)c1.[Br-]	0.78 ± 0.08	0.86 ± 0.09	0.96 ± 0.1	1.07 ± 0.11	1.17 ± 0.12
C1CCOC1 [tetrahydrofuran] + CCC[n+]1ccn(C)c1.[Br-]	2.11 ± 0.22	2.19 ± 0.23	2.28 ± 0.24	2.37 ± 0.25	2.47 ± 0.26
Cc1ccccc1 [toluene] + CCC[n+]1ccn(C)c1.[Br-]	2.95 ± 0.31	3.11 ± 0.33	3.33 ± 0.35	3.5 ± 0.37	3.72 ± 0.39
ClC(Cl)Cl [trichloromethane] + CCC[n+]1ccn(C)c1.[Br-]	0.13 ± 0.03	0.15 ± 0.03	0.16 ± 0.03	0.18 ± 0.03	0.2 ± 0.03
